In patent US7582649B2, “Hydroxy alkyl substituted 1,3,8-triazaspiro[4.5]decan-4-one derivatives useful for the treatment of ORL-1 receptor mediated disorders” (Janssen Pharmaceutica, NV, priority 2002, dated 2009) one finds IC50 data, which are given here for 43 compounds.

A value given as a limit tells only on which side of the number the result lay.

One experiment deals with mu opioid receptor (Homo sapiens, UniProt P35372). Briefly: Filtration binding assay: mu opioid receptor.
For a further experiment, the target named is kappa opioid receptor (Homo sapiens, UniProt P41145). Briefly: Filtration binding assay: kappa opioid receptor.
Sequence of kappa opioid receptor (P41145 whole entry): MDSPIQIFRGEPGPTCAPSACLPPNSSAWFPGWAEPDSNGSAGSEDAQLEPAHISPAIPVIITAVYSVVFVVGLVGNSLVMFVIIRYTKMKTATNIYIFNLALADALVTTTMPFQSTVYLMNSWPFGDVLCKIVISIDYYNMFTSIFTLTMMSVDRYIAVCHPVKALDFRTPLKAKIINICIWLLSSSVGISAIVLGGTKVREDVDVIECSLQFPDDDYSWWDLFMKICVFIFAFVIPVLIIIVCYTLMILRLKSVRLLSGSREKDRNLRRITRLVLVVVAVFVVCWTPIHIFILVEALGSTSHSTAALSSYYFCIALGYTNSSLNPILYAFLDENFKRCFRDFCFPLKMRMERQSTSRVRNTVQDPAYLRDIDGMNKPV

Sequence of mu opioid receptor (P35372 whole entry): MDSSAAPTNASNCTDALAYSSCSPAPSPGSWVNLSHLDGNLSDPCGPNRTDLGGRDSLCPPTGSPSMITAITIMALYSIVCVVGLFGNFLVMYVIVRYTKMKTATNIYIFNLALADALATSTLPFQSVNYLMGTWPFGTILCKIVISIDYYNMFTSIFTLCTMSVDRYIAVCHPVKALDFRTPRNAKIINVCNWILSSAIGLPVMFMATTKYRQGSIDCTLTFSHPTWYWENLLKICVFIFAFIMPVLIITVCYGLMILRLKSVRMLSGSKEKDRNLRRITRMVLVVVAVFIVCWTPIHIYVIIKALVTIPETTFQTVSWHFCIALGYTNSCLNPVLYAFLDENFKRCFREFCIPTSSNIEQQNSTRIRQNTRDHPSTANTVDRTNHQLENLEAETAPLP

Consider `O=C1N(C[C@@H](O)CNCc2ccc(Cl)cc2Cl)CN(c2ccc(F)cc2)C12CCN(CC1CCCCCCC1)CC2` [compound 31], for which the results for the IC50 on mu opioid receptor and at kappa opioid receptor were 2930 nM and 280 nM, respectively.

With `O=C1N(C[C@@H](O)CN(CCc2ccccc2)Cc2ccccc2)CN(c2ccc(F)cc2)C12CCN(CC1CCCCCCC1)CC2` [compound 65], the IC50 on mu opioid receptor turned out to be 580 nM; on kappa opioid receptor it was 510 nM.

Consider `O=C1N(C[C@@H](O)CN(CCc2ccccc2)Cc2ccccc2)CN(c2ccc(F)cc2)C12CCN(C1Cc3cccc4cccc1c34)CC2` (mixture of isomers) [compound 313], for which the IC50 at mu opioid receptor came out at 330 nM; at kappa opioid receptor, 500 nM.

For the compound `O=C1N(C[C@@H](O)CNCc2cc(C(F)(F)F)cc(C(F)(F)F)c2)CN(c2ccc(F)cc2)C12CCN(C1Cc3cccc4cccc1c34)CC2` (mixture of isomers) [compound 319], the IC50 on mu opioid receptor was 320 nM; on kappa opioid receptor, 580 nM.

For `O=C1N(C[C@@H](O)CNCc2cccnc2)CN(c2ccc(F)cc2)C12CCN(Cc1cc(C(F)(F)F)cc(C(F)(F)F)c1)CC2` [compound 609], the IC50 at mu opioid receptor and at kappa opioid receptor was not below 10000 nM each time.

`Cc1cccc2cccc(CN3CCC4(CC3)C(=O)N(C[C@@H](O)CNCCN3CCOCC3)CN4c3ccc(F)cc3)c12` [compound 396]: the 50% inhibitory concentration (IC50) at mu opioid receptor is more than 10000 nM; on kappa opioid receptor it was 810 nM.

With `CN(C)CCN(Cc1ccccc1)C[C@H](O)CN1CN(c2ccc(F)cc2)C2(CCN(Cc3c(Cl)cccc3C(F)(F)F)CC2)C1=O` [compound 459], the IC50 on mu opioid receptor is more than 10000 nM; at kappa opioid receptor, 3210 nM.

As to `O=C1N(C[C@@H](O)CNc2ccc(Br)cn2)CN(c2ccc(F)cc2)C12CCN(CC1CCCCCCC1)CC2` [compound 13], the IC50 was found to be 620 nM at mu opioid receptor and 120 nM on kappa opioid receptor.

For the compound `O=C1N(C[C@@H](O)CNCc2ccc(Br)cc2)CN(c2ccc(F)cc2)C12CCN(CC1CCCCCCC1)CC2` [compound 15], the IC50 on mu opioid receptor worked out at 850 nM; on kappa opioid receptor, 330 nM.

Consider `O=C1N(C[C@@H](O)CNCc2cc(F)ccc2F)CN(c2ccc(F)cc2)C12CCN(CC1CCCCCCC1)CC2` [compound 12], for which the values for the half-inhibitory concentration (IC50) at mu opioid receptor and at kappa opioid receptor were 520 nM and 200 nM, respectively.

For `O=C1N(C[C@@H](O)CNCc2ccc(C(F)(F)F)cc2)CN(c2ccc(F)cc2)C12CCN(CC1CCCCCCC1)CC2` [Compound #29], the half-maximal inhibitory concentration (IC50) at mu opioid receptor amounted to 5410 nM; at kappa opioid receptor, 410 nM.

With `CCCCN(Cc1ccccc1)C[C@H](O)CN1CN(c2ccc(F)cc2)C2(CCN(Cc3cc(C(F)(F)F)cc(C(F)(F)F)c3)CC2)C1=O` [compound 671], the 50% inhibitory concentration (IC50) on mu opioid receptor and on kappa opioid receptor was not below 10000 nM in each case.

Consider `Cc1cccc2cccc(CN3CCC4(CC3)C(=O)N(C[C@H](O)CNc3ccncc3)CN4c3ccc(F)cc3)c12` [compound 393], for which the IC50 is more than 10000 nM at mu opioid receptor and 1040 nM on kappa opioid receptor.

With `Cc1cccc2cccc(CN3CCC4(CC3)C(=O)N(C[C@H](O)CN(C)C)CN4c3ccc(F)cc3)c12` [Compound #441, 3-(3-Dimethylamino-2-(R)-hydroxy-propyl)-1-(4-fluoro-phenyl)-8-(8-methyl-naphthalen-1-ylmethyl)-1,3,8-triaza-spiro[4.5]decan-4-one], the IC50 on mu opioid receptor and on kappa opioid receptor was more than 10000 nM in each case.

For `COc1ccc(CCN(C)C[C@H](O)CN2CN(c3ccc(F)cc3)C3(CCN(Cc4c(Cl)cccc4C(F)(F)F)CC3)C2=O)cc1OC` [compound 457], the values for the IC50 at mu opioid receptor and at kappa opioid receptor were more than 10000 nM and 9430 nM, respectively.

Consider `CCN(CC)C(=O)C1CCCN(C[C@H](O)CN2CN(c3ccc(F)cc3)C3(CCN(Cc4cc(C(F)(F)F)cc(C(F)(F)F)c4)CC3)C2=O)C1` (some centres unmarked) [compound 686], for which the figures for the concentration for half-maximal inhibition (IC50) on mu opioid receptor and at kappa opioid receptor were not below 10000 nM and 2520 nM, respectively.

`O=C1N(C[C@@H](O)CNCc2ccc([N+](=O)[O-])cc2)CN(c2ccc(F)cc2)C12CCN(CC1CCCCCCC1)CC2` [compound 23]: the IC50 came to 9200 nM at mu opioid receptor and 490 nM at kappa opioid receptor.

With `COc1ccc(CCN(C)C[C@H](O)CN2CN(c3ccc(F)cc3)C3(CCN(Cc4cccc5cccc(C)c45)CC3)C2=O)cc1OC` [compound 399], the IC50 on mu opioid receptor is more than 10000 nM; on kappa opioid receptor, 750 nM.

`O=C1N(C[C@@H](O)CN2CCN(c3cccc(C(F)(F)F)c3)CC2)CN(c2ccc(F)cc2)C12CCN(Cc1cc(C(F)(F)F)cc(C(F)(F)F)c1)CC2` [compound 683]: the IC50 at mu opioid receptor and on kappa opioid receptor was not below 10000 nM throughout.

With `COC(=O)C(N)CSC[C@H](O)CN1CN(c2ccc(F)cc2)C2(CCN(CC3CCCCCCC3)CC2)C1=O` (some centres unmarked) [compound 460], the IC50 on mu opioid receptor was determined as 900 nM; at kappa opioid receptor it was 830 nM.

On to `COc1ccc(CCNC[C@H](O)CN2CN(c3ccc(F)cc3)C3(CCN(Cc4cccc5cccc(C)c45)CC3)C2=O)cc1OC` [compound 386], for which the figures for the half-maximal inhibitory concentration (IC50) on mu opioid receptor and at kappa opioid receptor were more than 10000 nM and 3690 nM, respectively.

On to `Cc1cccc2cccc(CN3CCC4(CC3)C(=O)N(C[C@H](O)CN(Cc3ccccc3)C(C)(C)C)CN4c3ccc(F)cc3)c12` [compound 389], for which the results for the 50% inhibitory concentration (IC50) at mu opioid receptor and on kappa opioid receptor were 7060 nM and 9840 nM, respectively.

For the compound `O=C1N(C[C@@H](O)CNc2ccccc2)CN(c2ccc(F)cc2)C12CCN(Cc1c(Cl)cccc1C(F)(F)F)CC2` [compound 458], the half-maximal inhibitory concentration (IC50) at mu opioid receptor was more than 10000 nM; on kappa opioid receptor, 1450 nM.

For the compound `O=C1N(C[C@@H](O)CN(Cc2ccccc2)C[C@@H]2CCC[C@@H]2O)CN(c2ccc(F)cc2)C12CCN(CC1CCCCCCC1)CC2` [compound 289], the results for the half-maximal inhibitory concentration (IC50) on mu opioid receptor and at kappa opioid receptor were 1390 nM and 190 nM, respectively.

On to `Cc1cccc2cccc(CN3CCC4(CC3)C(=O)N(C[C@@H](O)CN(Cc3ccccc3)C(C)(C)C)CN4c3ccc(F)cc3)c12` [compound 395], for which the IC50 is 1100 nM at mu opioid receptor and more than 10000 nM at kappa opioid receptor.

Turning to `CCCCN(Cc1ccccc1)C[C@H](O)CN1CN(c2ccc(F)cc2)C2(CCN(Cc3c(C)c(C)c(C)c(C)c3C)CC2)C1=O` [Compound #280, 3-[3-(Benzyl-butyl-amino)-2-(S)-hydroxy-propyl]-1-(4-fluoro-phenyl)-8-pentamethylphenylmethyl-1,3,8-triaza-spiro[4.5]decan-4-one], the IC50 on mu opioid receptor is 2520 nM; on kappa opioid receptor, 1080 nM.

For `CCOC(=O)CN(Cc1ccccc1)C[C@H](O)CN1CN(c2ccc(F)cc2)C2(CCN(Cc3cc(C(F)(F)F)cc(C(F)(F)F)c3)CC2)C1=O` [compound 670], the half-maximal inhibitory concentration (IC50) on mu opioid receptor and on kappa opioid receptor was not below 10000 nM each time.

As to `CN(C)CCN(Cc1ccccc1)C[C@H](O)CN1CN(c2ccc(F)cc2)C2(CCN(Cc3cc(C(F)(F)F)cc(C(F)(F)F)c3)CC2)C1=O` [compound 674], the IC50 at mu opioid receptor and at kappa opioid receptor was not below 10000 nM in each case.

As to `CCCCN(CCCC)CCCNC[C@H](O)CN1CN(c2ccc(F)cc2)C2(CCN(C3Cc4cccc5cccc3c45)CC2)C1=O` (mixture of isomers) [compound 338], the IC50 at mu opioid receptor stood at 740 nM; at kappa opioid receptor, 140 nM.

For `O=C1N(C[C@@H](O)CNc2ccc(-c3ccccc3)cc2)CN(c2ccc(F)cc2)C12CCN(CC1CCCCCCC1)CC2` [compound 9], the half-maximal inhibitory concentration (IC50) at mu opioid receptor amounted to 940 nM; on kappa opioid receptor it was 1400 nM.

On to `COc1ccc(CCN(C)C[C@@H](O)CN2CN(c3ccc(F)cc3)C3(CCN(Cc4cccc5cccc(C)c45)CC3)C2=O)cc1OC` [compound 391], for which the IC50 is more than 10000 nM on mu opioid receptor and 2180 nM at kappa opioid receptor.

In the case of `O=C1N(C[C@@H](O)CNCCc2ccccc2)CN(c2ccc(F)cc2)C12CCN(CC1CCCCCCC1)CC2` [Compound #11], the results for the IC50 on mu opioid receptor and on kappa opioid receptor were 820 nM and 290 nM, respectively.

In the case of `COc1ccc(CNC[C@@H](O)CN2CN(c3ccc(F)cc3)C3(CCN(Cc4cccc5cccc(C)c45)CC3)C2=O)cc1` [compound 392], the concentration for half-maximal inhibition (IC50) is more than 10000 nM on mu opioid receptor and 1390 nM on kappa opioid receptor.

Turning to `COc1cc(CNC[C@H](O)CN2CN(c3ccc(F)cc3)C3(CCN(C4Cc5cccc6cccc4c56)CC3)C2=O)cc(OC)c1OC` (mixture of isomers) [compound 320], the half-inhibitory concentration (IC50) at mu opioid receptor turned out to be 340 nM; at kappa opioid receptor it was 120 nM.

Turning to `COc1ccc(CNC[C@H](O)CN2CN(c3ccc(F)cc3)C3(CCN(C4Cc5cccc6cccc4c56)CC3)C2=O)cc1OC` (mixture of isomers) [compound 307], the results for the half-inhibitory concentration (IC50) on mu opioid receptor and on kappa opioid receptor were 750 nM and 210 nM, respectively.

For `O=C1N(C[C@@H](O)CN(Cc2ccccc2)C[C@@H]2CCCCC[C@@H]2O)CN(c2ccc(F)cc2)C12CCN(CC1CCCCCCC1)CC2` [compound 291], the IC50 worked out at 4560 nM on mu opioid receptor and 570 nM on kappa opioid receptor.

`O=C1N(C[C@@H](O)CN2CCc3ccccc3C2)CN(c2ccc(F)cc2)C12CCN(CC1CCCCCCC1)CC2` [Compound #72]: the half-maximal inhibitory concentration (IC50) at mu opioid receptor worked out at 1840 nM; on kappa opioid receptor, 790 nM.

For the compound `O=C1N(C[C@@H](O)CN2CCN(C(c3ccccc3)c3ccc(Cl)cc3)CC2)CN(c2ccc(F)cc2)C12CCN(C1Cc3cccc4cccc1c34)CC2` (mixture of isomers) [compound 337], the IC50 at mu opioid receptor is 550 nM; on kappa opioid receptor, 250 nM.

Turning to `COc1cc(CNC[C@H](O)CN2CN(c3ccc(F)cc3)C3(CCN(CC4CCCCCCC4)CC3)C2=O)cc(OC)c1OC` [Compound #43], the IC50 at mu opioid receptor amounted to 540 nM; at kappa opioid receptor, 320 nM.

In the case of `CCCCN(Cc1ccccc1)C[C@H](O)CN1CN(c2ccc(F)cc2)C2(CCN(Cc3c(Cl)cccc3C(F)(F)F)CC2)C1=O` [Compound #456, 3-[3-(Benzyl-butyl-amino)-2-(S)-hydroxy-propyl]-8-(2-chloro-6-trifluoromethyl-benzyl)-1-(4-fluoro-phenyl)-1,3,8-triaza-spiro[4.5]decan-4-one], the 50% inhibitory concentration (IC50) at mu opioid receptor and at kappa opioid receptor was more than 10000 nM each time.

Regarding `O=C1N(C[C@@H](O)CNc2ccc(C3CCCCC3)cc2)CN(c2ccc(F)cc2)C12CCN(CC1CCCCCCC1)CC2` [compound 285], the IC50 at mu opioid receptor is 4780 nM; at kappa opioid receptor, 2690 nM.

As for `O=C1N(C[C@@H](O)CNCc2ccccc2Br)CN(c2ccc(F)cc2)C12CCN(CC1CCCCCCC1)CC2` [Compound #44], the IC50 at mu opioid receptor was found to be 1130 nM; on kappa opioid receptor, 160 nM.

For the compound `CCOc1ccccc1NC[C@H](O)CN1CN(c2ccc(F)cc2)C2(CCN(CC3CCCCCCC3)CC2)C1=O` [compound 281], the concentration for half-maximal inhibition (IC50) at mu opioid receptor stood at 580 nM; at kappa opioid receptor, 960 nM.
